Patent publication US9532980B2, “Methods for the treatment of A-β related disorders and compositions therefor” (The Rockefeller University, priority 2006, dated 2017)

Key:
[1] = test system: Aβ40 and Aβ42 peptide production in N2A-APP695 cells transiently expressing CK1ε-271; assay: Aβ40/Aβ42 ELISA in N2A-APP695 cells transiently expressing constitutively active CK1ε-271; format: cell-based; conditions: for effect on Aβ40 and Aβ42 peptide concentration/production: increasing concentrations, 3 hours incubation, ELISA
Experimental: (§1) N2A-APP695 cells are plated in 12-well dishes at a density of 3×10^5 cells per well in DMEM/Opti-MEM medium containing 5% Fetal Bovine Serum (FBS) following manufacturer's instructions (American Type Culture Collection).=For the time-course experiments, cells are exposed to drugs for 1-24 h.
Transfection: Transfection of N2A-APP695 cells is performed by standard methods. Cells are grown to 60% confluence and then transfected with relevant constructs with FUGENE6 according to the manufacturer's protocol (Roche Applied Bioscience). After transfection, cells are recovered with 100 μl of RIPA buffer, incubated for 30 min on ice, and centrifuged at 13,000 rpm 20 min at 4° C. The supernatants are collected and submitted to BCA (Pierce) quantification accordingly to manufacturer's instructions. Equal amounts of cell extracts are loaded onto 4-12% Bis-Tris acrylamide gels (Invitrogen) with MES buffer and subjected to western blot analysis using appropriate antibodies. For immunoprecipitation assays, media are incubated with antibody 4G8 (Signet) to detect Aβ and full length βAPP. Drugs are added to cell cultures in fresh medium (0.5% fetal bovine serum); media and cells are collected at the relevant time.
N2A cells stably expressing APP-695 are transiently transfected with CK1ε-271. 48 hours post-transfection, cells are incubated in the absence or presence of increasing concentrations of CK1 inhibitor IC261. Cell supernatants are collected after 3 hours of incubation and subjected to Aβ40/Aβ42 ELISA assays. […] In order to exclude non-specific effects of IC261, two other CK1 inhibitors, CKI-7 and D4476 are tested.

[2] = test system: Aβ peptide production in N2A cells expressing APP-695; assay: Endogenous Aβ peptide production in N2A cells expressing APP-695 (sandwich ELISA, immunoprecipitation/western blot); format: cell-based; conditions: for decrease for Aβ40 peptide / decrease for Aβ42 peptide: 50 μM, three hours, N2A cells expressing APP-695
Experimental: as §1
2003 Oct. 14; 100(21):12444-9.
We next investigated the effect of the three different classes of CK1 inhibitors CKI-7, IC-261, and D4476 (Chijiwa, T., et al. (1989) J Biol Chem 264, 4924-7; Mashhoon, N., et al. (2000) J Biol Chem 275, 20052-60; Rena, G., et al. (2004) EMBO Rep 5, 60-5) on Aβ peptide production in N2A cells expressing APP-695.

[3] = test system: N2A-APP695 cells; assay: Cell viability: lactate dehydrogenase release into media (CytoTox96 kit); format: cell-based
Description: To exclude the possibility that the inhibitory effects on Aβ peptide production are due to cellular toxicity, we investigated the effects of the drugs on cell viability. Media are collected and tested for the level of lactate dehydrogenase, a stable cytosolic enzyme released upon cell lysis, using a non-radioactive CytoTox96 kit (Promega). Values obtained from drug treated cells are compared with values obtained with DMSO and non-treated cells. No toxicity is observed for CKI-7, even after 24 hours of incubation and for the highest concentration tested (50 μM). A slight toxicity (less than 1-fold) is observed for D4476, only for the higher dose tested (50 μM) and only after 24 hours of incubation.

[4] = test system: Notch cleavage; assay: mNotchΔE Notch-1 cleavage assay in N2A cells (western blot, NICD); format: cell-based; conditions: N2A cells over-expressing mNotchΔE, 3 hours
Experimental: mNotchΔE Transfection and Notch-1 Cleavage Assays in N2A-APP695 Cells: N2A cells stably overexpressing APP Swedish mutant are transiently transfected to overexpress mNotchE (truncated Notch-1, lacking most of the Notch extracellular domain (Kopan, R., et al. (1996) Proc Natl Acad Sci USA 93, 1683-8). Cultures are preincubated with the different inhibitors for 3 hours. mNotchΔE is detected in cell lysates by western blot analysis using the Cleaved Notch 1 antibody (NICD) available from Cell Signaling.
Several protein kinases and protein phosphatases have been implicated in the progression of Alzheimer's disease and especially in the regulation of β-amyloid formation. These include the protein kinases PKA, PKC, GSK3-β and CDK5, and the protein phosphatases PP1/PP2A and PP2B. […] Unfortunately, these effects are associated with increased carcinogenic risk. […] We therefore investigated the effect of CK1 inhibitors on Notch processing. Briefly, N2A cells transiently transfected with N-terminally truncated mNotchΔE-myc cDNA containing plasmid are incubated with 1, 10 μM concentrations of DAPT, 1,10 μM concentrations of L-685,458, 5, 50 μM concentrations of D4476 or 1, 10 μM concentrations of Gleevec for 3 hours. Cell lysates are analysed by conventional SDS-PAGE analysis and western blotting using anti-Notch (NICD cleavage product), anti-Aβ, anti-myc and anti-actin antibodies.

[5] = test system: CK1; conditions: Rena et al. (2004) EMBO Rep 5, 60-5; cited from earlier work
[6] = test system: APP, βCTF and Aβ40 peptide levels in N2A-APP695 cells; assay: APP, βCTF and Aβ40 levels in N2A-APP695 cells (western blot, Aβ40 ELISA); conditions: 50 μM, 3 hours
Experimental: Aβ quantification: After immobilization of total Aβ (coated monoclonal antibody specific for the N-terminus of Aβ from media, Aβ40/42 peptide determinations are made by sandwich ELISA (BioSource International) using rabbit polyclonal antibodies specific for the C-terminus of Aβ40 or Aβ42. In all cases, Aβ levels are normalized to total protein levels.
The effects of D4476 on APP, βCTF and Aβ40 peptide levels in N2A-APP695 cells are compared. N2A cells are incubated for 3 hours with 0, 1, 5 or 50 μM concentrations of D4476. Cellular extracts are subjected to western blotting analysis using βCTF or APP antibodies, or to Aβ40 ELISA assays. […] Data for at least three experiments (mean±S.E.M.) are compared (Prism) with the control conditions (no drug).

[7] = test system: APP-C99 in N2A cells; assay: C99 breakdown and Aβ production in N2A cells transiently transfected with APP-C99; conditions: 3 hours
Experimental: Cellular extracts are subjected to western blotting analysis using βCTF or APP antibodies, or to Aβ40 ELISA assays. N2A cells are transiently transfected with a APP-C99 containing plasmid. […] Cell lysates are analyzed by SDS-PAGE and western blotting analysis or by Aβ40 ELISA assay. Data for at least three experiments (mean±S.E.M.) are compared (Prism) with the control conditions (no drug).

[8] = CK1ε-271 over-expressing N2A-APP695 cells

| Structure (SMILES) | effect on Aβ40 and Aβ42 peptide concentration/production [1, 8] | decrease for Aβ40 peptide [2] | decrease for Aβ42 peptide [2] | Notch cleavage [4] | further results |
| --- | --- | --- | --- | --- | --- |
| NC(=O)c1ccc(-c2nc(-c3ccc4c(c3)OCCO4)c(-c3ccccn3)[nH]2)cc1 [D4476, 4-(4-(2,3-dihydrobenzo[1,4]dioxin-6-yl)-5-pyridin-2-yl-1H-imidazol-2-yl)benzamide] | significant and dose-dependent reduction | 42% | 54.1% | not affected | toxicity (lactate dehydrogenase release), fold ([3]; slight toxicity only at 50 μM and only after 24 hours, compared with DMSO and non-treated cells): less than 1 fold; concentration required to observe an effect on CK1 activity in cell lines [5]: 50 µM; APP expression level [6]: no effect; Aβ peptide production [6]: considerably reduces; βCTF levels [6]: significantly increases; lowest concentration at which effects on C99 breakdown and Aβ production are apparent [7]: 5 µM; Aβ peptide production ([7]; various concentrations): decreased Aβ peptide production in a dose dependent manner; breakdown of C99 ([7]; various concentrations): inhibited the breakdown of C99 |
| NCCNS(=O)(=O)c1ccc(Cl)c2ccncc12 [CKI-7] | significant and dose-dependent reduction | 14.8% | 24% | not affected | toxicity (lactate dehydrogenase release) ([3]; 24 hours of incubation, highest concentration tested (50 μM)): No toxicity |
| COc1cc(OC)c(/C=C2/C(=O)Nc3ccccc32)c(OC)c1 [IC261, (3E)-3-[(2,4,6-trimethoxyphenyl)methylidene]-1 H-indol-2-one] | dramatic reduction | 48% | 52.4% | not affected | concentration at which the effect on Aβ40/Aβ42 is near maximum ([1]; CK1ε-271 over-expressing N2A-APP695 cells, 3 hours): 5 µM; time dependence of the reduction of Aβ40 and Aβ42 peptide concentration ([1]; longer exposure gives greater reduction): time-dependent effect; toxicity (lactate dehydrogenase release) ([3]; after 12 hours of incubation): No effect on toxicity |
| NC(=O)c1ccc(-c2nc(-c3ccc4c(c3)OCO4)c(-c3ccccn3)[nH]2)cc1 [SB-431542, 4-(4-(benzo[1,3]dioxol-5-yl)-5-pyridin-2-yl-1H-imidazol-2-yl)benzamide] | – | – | – | – | properties on Aβ peptide formation compared with D4476 [2]: very comparable properties |
| C[C@H](NC(=O)Cc1cc(F)cc(F)c1)C(=O)N[C@H](C(=O)OC(C)(C)C)c1ccccc1 [DAPT] | – | – | – | total inhibition | – |
